Test results from article PMC6839502 (Journal of Alzheimer's Disease, 2019).

Assay: Safety and tolerability
Assay type: in vivo, human
[1] = 275 mg QD 14 days, healthy adults, 9 evaluable
[2] = single 3 mg, healthy adults, 5 evaluable
[3] = single 12 mg, healthy adults, 6 evaluable
[4] = single 40 mg, healthy adults, 6 evaluable
[5] = single 160 mg, healthy adults, 6 evaluable
[6] = single 200 mg fed, healthy adults, 6 evaluable
[7] = single 200 mg, healthy adults, 6 evaluable
[8] = single 400 mg, healthy adults, 6 evaluable
[9] = single 540 mg, healthy adults, 6 evaluable
[10] = studies B8271001 and B8271004 overall

Compound: C[C@H]1C[C@H]2CSC(N)=N[C@@]2(c2nc(NC(=O)c3ccc(OC(F)F)cn3)cs2)CO1 [PF-06751979]
- Number of subjects with temporary discontinuation or dose reduction due to AEs (125 mg QD 14 days, healthy older subjects, 8 evaluable): 0
- Back pain, all-causality [1]: 0
- Fatigue (MedDRA preferred term), all-causality [1]: 0
- Headache (MedDRA preferred term), all-causality [1]: 1
- Headache, treatment related [1]: 0
- Hepatic enzyme increased, all-causality [1]: 1 (1)
- Hepatic enzyme increased, treatment related [1]: 1 (1)
- Insomnia, all-causality [1]: 0
- Musculoskeletal discomfort, all-causality [1]: 2
- Musculoskeletal discomfort, treatment related [1]: 0
- Number of AEs, all-causality treatment-emergent [1]: 18
- Number of AEs, treatment related [1]: 13
- Number of subjects with AEs, all-causality [1]: 8
- Number of subjects with AEs, treatment related [1]: 7
- Number of subjects with SAEs [1]: 0
- Number of subjects with discontinuation due to AEs [1]: 1 (1)
- Number of subjects with discontinuation due to AEs, treatment related [1]: 1 (1)
- Number of subjects with severe AEs [1]: 0
- Number of subjects with temporary discontinuation or dose reduction due to AEs [1]: 0
- Paresthesia, all-causality [1]: 1 (1)
- Paresthesia, treatment related [1]: 1 (1)
- Procedural pain, all-causality [1]: 0
- Rash leading to discontinuation, one subject (275 mg QD, 6 h post-dose on Day 11, deemed treatment related): moderate maculopapular rash
- AST elevation, one subject (275 mg QD, Day 14, after discontinuation on Day 11): 1.15 x ULN
- Fatigue (MedDRA preferred term), all-causality [2]: 0
- Headache (MedDRA preferred term), all-causality [2]: 0
- Number of AEs, all-causality treatment-emergent [2]: 1
- Number of AEs, treatment related [2]: 0
- Number of subjects with AEs, all-causality [2]: 1
- Number of subjects with AEs, treatment related [2]: 0
- Number of subjects with SAEs [2]: 0
- Number of subjects with discontinuation due to AEs [2]: 0
- Number of subjects with severe AEs [2]: 0
- Number of subjects with temporary discontinuation or dose reduction due to AEs [2]: 0
- Fatigue (MedDRA preferred term), all-causality [3]: 0
- Headache (MedDRA preferred term), all-causality [3]: 0
- Number of AEs, all-causality treatment-emergent [3]: 0
- Number of subjects with AEs, all-causality [3]: 0
- Number of subjects with SAEs [3]: 0
- Number of subjects with discontinuation due to AEs [3]: 0
- Number of subjects with severe AEs [3]: 0
- Number of subjects with temporary discontinuation or dose reduction due to AEs [3]: 0
- Fatigue (MedDRA preferred term), all-causality [4]: 0
- Headache (MedDRA preferred term), all-causality [4]: 0
- Number of AEs, all-causality treatment-emergent [4]: 0
- Number of subjects with AEs, all-causality [4]: 0
- Number of subjects with SAEs [4]: 0
- Number of subjects with discontinuation due to AEs [4]: 0
- Number of subjects with severe AEs [4]: 0
- Number of subjects with temporary discontinuation or dose reduction due to AEs [4]: 0
- Fatigue (MedDRA preferred term), all-causality [5]: 0
- Headache (MedDRA preferred term), all-causality [5]: 0
- Number of AEs, all-causality treatment-emergent [5]: 0
- Number of subjects with AEs, all-causality [5]: 0
- Number of subjects with SAEs [5]: 0
- Number of subjects with discontinuation due to AEs [5]: 0
- Number of subjects with severe AEs [5]: 0
- Number of subjects with temporary discontinuation or dose reduction due to AEs [5]: 0
- Fatigue (MedDRA preferred term), all-causality [6]: 1 (1)
- Fatigue, treatment related [6]: 1 (1)
- Headache (MedDRA preferred term), all-causality [6]: 0
- Number of AEs, all-causality treatment-emergent [6]: 7
- Number of AEs, treatment related [6]: 4
- Number of subjects with AEs, all-causality [6]: 4 (4)
- Number of subjects with AEs, treatment related [6]: 4 (4)
- Number of subjects with SAEs [6]: 0
- Number of subjects with discontinuation due to AEs [6]: 0
- Number of subjects with severe AEs [6]: 0
- Number of subjects with temporary discontinuation or dose reduction due to AEs [6]: 0
- Fatigue (MedDRA preferred term), all-causality [7]: 2 (2)
- Fatigue, treatment related [7]: 2 (2)
- Headache (MedDRA preferred term), all-causality [7]: 0
- Number of AEs, all-causality treatment-emergent [7]: 5
- Number of AEs, treatment related [7]: 3
- Number of subjects with AEs, all-causality [7]: 3 (3)
- Number of subjects with AEs, treatment related [7]: 3 (3)
- Number of subjects with SAEs [7]: 0
- Number of subjects with discontinuation due to AEs [7]: 0
- Number of subjects with severe AEs [7]: 0
- Number of subjects with temporary discontinuation or dose reduction due to AEs [7]: 0
- Fatigue (MedDRA preferred term), all-causality [8]: 0
- Headache (MedDRA preferred term), all-causality [8]: 1 (1)
- Headache, treatment related [8]: 1 (1)
- Number of AEs, all-causality treatment-emergent [8]: 5 (5)
- Number of AEs, treatment related [8]: 5 (5)
- Number of subjects with AEs, all-causality [8]: 2 (2)
- Number of subjects with AEs, treatment related [8]: 2 (2)
- Number of subjects with SAEs [8]: 0
- Number of subjects with discontinuation due to AEs [8]: 0
- Number of subjects with severe AEs [8]: 0
- Number of subjects with temporary discontinuation or dose reduction due to AEs [8]: 0
- Fatigue (MedDRA preferred term), all-causality [9]: 0
- Headache (MedDRA preferred term), all-causality [9]: 2 (2)
- Headache, treatment related [9]: 2 (2)
- Number of AEs, all-causality treatment-emergent [9]: 10
- Number of AEs, treatment related [9]: 6
- Number of subjects with AEs, all-causality [9]: 6
- Number of subjects with AEs, treatment related [9]: 3
- Number of subjects with SAEs [9]: 0
- Number of subjects with discontinuation due to AEs [9]: 0
- Number of subjects with severe AEs [9]: 0
- Number of subjects with temporary discontinuation or dose reduction due to AEs [9]: 0
- Findings in ECGs or vital signs (studies B8271001 and B8271004): no clinically meaningful findings
- SAEs or deaths [10]: no SAEs or deaths were reported
- Severity of TEAEs [10]: mild to moderate
